From publication PMC11554305, “Functional identification of soluble uric acid as an endogenous inhibitor of CD38” (eLife, 2024)

Legend:
Type in all cases: biochemical
CD38 [1] = target: T1, CD38 (Homo sapiens, UniProt P28907); assay: Hydrolase activity of THP-1 cells; details: sUA 0–500 μM, Figure 1—figure supplement 1A
T1 construct: cells or tissues were directly homogenized in blank reaction buffer on ice; host or cells: THP-1
T1 sequence (P28907 1-300): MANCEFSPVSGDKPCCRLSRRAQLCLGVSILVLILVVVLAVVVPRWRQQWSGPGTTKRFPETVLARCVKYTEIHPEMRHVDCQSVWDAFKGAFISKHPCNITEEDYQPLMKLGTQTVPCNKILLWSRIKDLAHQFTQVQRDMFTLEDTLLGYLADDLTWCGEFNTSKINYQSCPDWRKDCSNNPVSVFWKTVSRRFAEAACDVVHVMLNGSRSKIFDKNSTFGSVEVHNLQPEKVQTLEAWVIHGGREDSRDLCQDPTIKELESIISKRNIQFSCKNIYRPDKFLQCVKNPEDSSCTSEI
Method: (§1) The hydrolase activity of CD38 was measured according to a previous report ([de Oliveira et al., 2018]) with minor modifications. CD38 hydrolase activity was measured using 50 μM ε-NAD^+ as a substrate in hydrolase reaction buffer (250 mM sucrose, 40 mM Tris-HCl, pH 7.4). Briefly, cells or tissues were directly homogenized in blank reaction buffer on ice, and recombinant hCD38 was diluted in blank reaction buffer for subsequent assays. The tissue homogenates were centrifuged to collect the supernatant for enzyme assays. The loading volume of enzyme was 4–30 μL, the total volume of the reaction system was 3 mL. To detect enzyme inhibition, except when specified, the ligands were directly dissolved in hydrolase reaction buffer before pH adjustment, after which, the pH was immediately adjusted to 7.4. All reaction buffers, with or without ligands, were freshly prepared before each assay. For measurement of hydrolase activity, 3 mL reaction buffer containing enzyme, ε-NAD^+, and ligands at indicated concentrations was maintained at 37°C with constant stirring.
(§2) The reaction buffer for hydrolase or cyclase assays was excited at 300 nm, and fluorescence emission was measured every second at 410 nm by Shimazu RF-6000 spectrofluorometer. Hydrolase or cyclase activity was calculated from the linear portion of the time course by fitting a linear function to the data points recorded within 5 min.

CD38 [2] = target: T2, CD38 (Homo sapiens, UniProt P28907); assay: Hydrolase and cyclase activities of human and murine CD38
T2 construct: host or cells: recombinant hCD38, cells and mouse tissues
T2 sequence (P28907 43-300): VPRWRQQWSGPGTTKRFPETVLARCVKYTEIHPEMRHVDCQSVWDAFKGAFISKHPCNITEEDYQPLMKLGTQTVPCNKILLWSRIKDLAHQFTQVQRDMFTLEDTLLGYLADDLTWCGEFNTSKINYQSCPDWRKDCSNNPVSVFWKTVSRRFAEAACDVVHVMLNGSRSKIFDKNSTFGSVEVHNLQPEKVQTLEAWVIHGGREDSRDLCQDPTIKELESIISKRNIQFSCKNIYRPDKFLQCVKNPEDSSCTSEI
Method: as §1
(§3) The cyclase activity of CD38 was measured as previously described ([Higashida et al., 1999]; [Jin et al., 2007]). CD38 cyclase activity was measured using 60 μM NGD as a substrate in cyclase reaction buffer (100 mM KCl, 10 μM CaCl2, and 50 mM Tris-HCl, pH 6.6). Tissues were cut into pieces and suspended in the buffer (5 mM MgCl2, 10 mM Tris-HCl, pH 7.3) at 4°C for 30 min. Then, the suspension was homogenized on ice, and the supernatant was collected after centrifugation. To collect the crude membrane fractions, the supernatant was centrifuged at 105,000×g for 30 min. The final pellet was resuspended in 10 mM Tris-HCl solution (pH 6.6) for cyclase assay. Homogenates of THP-1 or A549 cells, and recombinant hCD38 were used directly for cyclase assays. The loading volume of enzyme was 4–20 μL, the total volume of reaction system was 3 mL. To detect enzyme inhibition, except when specified, the ligands were directly dissolved in cyclase reaction buffer before pH adjustment, after which, the pH was immediately adjusted to 6.6. All reaction buffers, with or without ligands, were freshly prepared before each assay. For measurement of cyclase activity, 3 mL reaction buffer containing enzyme, NGD, and ligands at indicated concentrations was maintained at 37°C with constant stirring.
as §2
(§4) Guanosine was dissolved in DMSO and diluted in the reaction buffer for subsequent assays.
(§5) For reversibility test, recombinant hCD38 was pre-incubated for 30 min in four conditions: (1) control reaction buffer; (2) in the presence of 100 μM substrate (ε-NAD^+ or NGD); (3) 500 μM sUA; (4) both substrate and sUA. Subsequently, the enzyme was diluted 100-fold in reaction buffer in the presence or absence of 500 μM sUA for activity assays using ε-NAD^+ or NGD. Naïve THP-1 and A549 cells were incubated with RPMI-1640 medium in the presence or absence of 500 μM sUA for 2 hr. The cells were collected and homogenized in the reaction buffer on ice with or without 500 μM sUA, samples were then diluted 100-fold in reaction buffer with or without 500 μM sUA for enzyme assay. Control group was not treated with sUA in all steps; sUA group was treated with sUA in each step; sUA release group was treated with sUA prior to dilution in sUA-free buffer for enzyme assays.

[3] = target: T3, nicotinamide phosphoribosyltransferase (NAMPT) (Homo sapiens, UniProt P43490); assay: NAMPT activity (colorimetric kit); details: Figure 3—figure supplement 2A
T3 construct: purchased MBL CY-1251V2
Method: The activities of NAMPT and PARP were measured using commercial kits, HT Universal Colorimetric PARP Assay Kit, and CycLex NAMPT Colorimetric Assay Kit Ver.2. The solutions of ligands were freshly prepared (pH was adjusted to 7.4) and were immediately used for enzyme assays.

CD38 [4] = target: T4, CD38 (Mus musculus, UniProt P56528); assay: Hydrolase and cyclase activities of human and murine CD38; details: lung tissues from WT mice, OA 0–5 mM
T4 construct: host or cells: recombinant hCD38, cells and mouse tissues
T4 sequence (P56528 1-304): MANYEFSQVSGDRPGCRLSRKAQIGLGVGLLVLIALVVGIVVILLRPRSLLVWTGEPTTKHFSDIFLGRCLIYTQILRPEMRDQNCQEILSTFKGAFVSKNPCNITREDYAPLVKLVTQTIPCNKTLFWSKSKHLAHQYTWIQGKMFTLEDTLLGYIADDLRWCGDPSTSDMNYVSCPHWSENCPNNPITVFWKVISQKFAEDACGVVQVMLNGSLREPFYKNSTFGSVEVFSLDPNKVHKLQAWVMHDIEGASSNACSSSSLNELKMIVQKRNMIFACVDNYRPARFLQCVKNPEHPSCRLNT
Method: as §1, §3, §2, §4, §5

T3 sequence (P43490 whole entry): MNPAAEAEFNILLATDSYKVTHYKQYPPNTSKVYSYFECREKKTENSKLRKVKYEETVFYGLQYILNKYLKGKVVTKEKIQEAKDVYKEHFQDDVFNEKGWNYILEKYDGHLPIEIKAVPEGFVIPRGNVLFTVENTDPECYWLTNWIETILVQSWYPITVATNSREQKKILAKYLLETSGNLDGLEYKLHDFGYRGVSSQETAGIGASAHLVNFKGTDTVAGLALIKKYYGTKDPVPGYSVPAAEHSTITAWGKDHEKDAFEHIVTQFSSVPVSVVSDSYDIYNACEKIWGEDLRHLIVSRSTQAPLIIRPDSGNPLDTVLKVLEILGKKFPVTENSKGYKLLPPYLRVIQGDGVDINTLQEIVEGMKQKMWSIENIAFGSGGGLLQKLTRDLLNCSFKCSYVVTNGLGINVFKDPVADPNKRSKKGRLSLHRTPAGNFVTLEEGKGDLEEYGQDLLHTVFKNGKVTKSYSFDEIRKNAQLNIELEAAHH

Row | Ki (CD38 [1]) | Reversibility of the inhibitory effects on CD38 (CD38 [2]; 30 min pre-incubation with 500 μM sUA, 100-fold dilution, hCD38, A549, THP-1) | Mode of inhibition of CD38 (CD38 [2]; different substrate concentrations, Figure 1C, D) | Effect on NAMPT activity [3] | IC50 for CD38 (in words) (CD38 [4]) | SMILES
1 | 75.5 µM | reversible | non-competitive inhibitor | without affecting the activities |  | O=c1[nH]c(=O)c2[nH]c(=O)[nH]c2[nH]1 [sUA, uric acid]
2 |  |  |  |  | millimolar range | O=C(O)c1nc(=O)[nH]c(=O)[nH]1 [OA, oxonic acid, reference compound]
